# [ ]: non-standard residue; d: D form. Gly(decyl) = CCCCCCCCCC[C@H](N)C(=O)O
# Assays:
# [1] = tested on: J774A.1 cells (a macrophage cell line); assay: Suppression of LPS-stimulated TNF secretion by cyclic analogues of Copaxone (Example 6); format: cell-based; settings: for TNF concentration: peptide 12.5 ug/ml as cyclodextrin complex, LPS 0.1 ug/ml, medium + LPS 637.6
# Description: • 1. Two cyclic oligopeptides were prepared with the following structures: cyclo(-A-K-Σ-Y-E-K-A-Σ-E-Y-) cyclo(-A-K-Σ-E-Y-K-A-Σ-Y-E-) • All amino acids are in the L form unless indicated otherwise. • All amino acids are linked by peptide bonds. • A, K, Y and E represent the epitope-forming amino acids and Σ represents the associating functional group borne on the associating amino acid wherein the associating amino acid is an L-alpha aminocarboxylic acid and the associating functional group is a side-chain residue consisting of a straight aliphatic chain containing ten carbon atoms. • The cyclic oligopeptides were prepared as solutions in hexafluoro-isopropanol (HFIP) at a concentration of 10 mg/ml, then mixed with equal volumes of HFIP solution containing beta-hydroxypropyl cyclodextrin at a concentration of 50 mg/ml. The organic solutions were then dried down under nitrogen, and the peptide/cyclodextrin complex redissolved in distilled water to give a final concentration of cyclic oligopeptide of 1 mg/ml. • 2. J774A.1 cells (a macrophage cell line) were plated out in all the wells of a 24-well cluster plate at a seeding density of 3×10^5 cells/ml/well (1 ml RPMI 1640 culture medium per well), and incubated overnight at 37° C. in 5% CO2/air. • 3. The following day, the solutions from step 1 were administered to wells containing cells in step 2, to give three wells each with a final concentration of 12.5 ug/ml of peptide. Additional wells containing cyclodextrin alone at 62.5 ug/ml were also prepared. The remaining wells were left untreated. The plate was incubated for a further four hours at 37 degC. • 4. Lipopolysaccharide (from E. coli strain 0111 B4) was added to the wells receiving the cyclic oligopeptide solution, as well as three of the wells receiving no peptide. The final concentration of lipopolysaccharide was 0.1 ug/ml. • 5. The plate was incubated overnight, and the following day the supernatants were assayed for TNF using a commercial ELISA kit.
# [2] = tested on: J774A.1 cells (a macrophage cell line); format: cell-based; settings: peptide 12.5 ug/ml; CTB 10 ug/ml; CTB alone 690.8, medium control 67.5
Substance,TNF concentration [1],effect on TNF secretion by macrophages compared with Copaxone ([1]; in words),Concentration of TNF [2]
"cyclo(-A-K-Σ-E-Y-K-A-Σ-Y-E-) (cyclo(AK[Gly(decyl)]EYKA[Gly(decyl)]YE); SMILES CCCCCCCCCC[C@@H]1NC(=O)[C@H](C)NC(=O)[C@H](CCCCN)NC(=O)[C@H](Cc2ccc(O)cc2)NC(=O)[C@H](CCC(=O)O)NC(=O)[C@H](CCCCCCCCCC)NC(=O)[C@H](CCCCN)NC(=O)[C@H](C)NC(=O)[C@H](CCC(=O)O)NC(=O)[C@H](Cc2ccc(O)cc2)NC1=O) [cyclo(-A-K-Σ-E-Y-K-A-Σ-Y-E), cyclic analogue of Copaxone; Σ = L-alpha aminocarboxylic acid with straight C10 side chain]",928.8 pg/mL,,
cyclo(-A-K-Σ-Y-E-K-A-Σ-E-Y-) [cyclo(-A-K-Σ-Y-E-K-A-Σ-E-Y)],486.9 pg/mL,displays the same effect on TNF secretion by macrophages,
cyclo(-DF-R-Σ4-S-DF-R-Σ4-S-),,,664.4 pg/mL
cyclo(-DF-R-Σ10-S-DF-R-Σ10-S-),,,268.5 pg/mL
cyclo(-DF-S-Σ4-R-DF-S-Σ4-R-),,,621.1 pg/mL
cyclo(-DF-S-Σ10-R-DF-S-Σ10-R-),,,85.7 pg/mL
